Results: patent US7390462B2, “Ratiometric fluorescent pH sensor for non-invasive monitoring” (The University of Maryland Baltimore County, priority 2002, dated 2008)
Where two headings read alike, the source gives them in different places.

Tests used:
[1] = cited from earlier work; for pKa: literature value
physchem = type: physicochemical
Protocol: Fluorescence measurements were recorded with a Varian Cary Eclipse fluorescence spectrophotometer. A solid sample/cuvette holder designed for front-face measurements was used to measure sensor patches that were fixed to the inside front wall of a PMMA disposable cuvette. Excitation light was fixed at an angle of incidence of 30°. Solutions were measured in regular 90° configuration. Cuvettes containing sensor patches were equilibrated in buffered saline solutions ranging in pH from 5 to 10. Uncorrected excitation and emission spectra were recorded for each sample. For comparison, solutions of DHDS and HPTS were also prepared and tested at the same pH values.
FIG. 3 depicts the calibration curves of excitation intensity ratio versus pH for DHDS solution, HPTS solution and the immobilized HPDS. Sensors comprising HDPS-PEG layers were calibrated in buffered saline solutions that ranged in pH from 5 to 10. In each case, the appropriate buffering species, i.e., phosphate, tris or bicarbonate, was at 10 mM and the desired ionic strength, e.g., 20, 150 or 300 mM, was made up with sodium chloride salt. Cuvettes containing sensor patches were equilibrated in each solution. For comparison 1 μM solutions of DHDS and HPTS also were prepared and tested over the same pH range.
Calibration curves for HPTS and MA-HPDS were fit to the following expression (25) describing intensity ratio (R) of monoprotic indicator dyes as a function of pH: R=([H^+]Rmax+ka,appRmin)/ka,app+[H^+] (1) where ka,app is the apparent dissociation constant of the immobilized dye. A least-squares linear regression was used to determine the parameters Rmin, Rmax and ka,app. The pka,app of the immobilized dye was calculated to be 7.61±0.05 for these conditions. This is in good agreement with the pka,app of HPTS in solution, which was calculated to be 7.72±0.02 under the same conditions.
The modified dye is sensitive over the same range as HPTS. The calibration curve for DHDS was fit to an expression similar to that for monoprotic acids, but for diprotic acids. The second hydroxyl group causes DHD to be sensitive over an extended range with two dissociation constants calculated to be pka1,app=7.03±0.02 and pka1,app=9.05±0.02 under these conditions.

[2] = literature (11); cited from earlier work

Structure (SMILES) | pKa [1] | pKa (physchem) | further results
O=S(=O)([O-])c1cc(S(=O)(=O)[O-])c2ccc3c(O)cc(O)c4ccc1c2c43.[Na+].[Na+] [DHDS, 6,8-dihydroxy-1,3-pyrenedisulfonic acid disodium salt] |  |  | second pKa ([1]; literature value (9)): approximately 8.5; pka1,app (first dissociation constant) (physchem): 7.03±0.02; pka1,app (second printed dissociation constant) (physchem): 9.05±0.02
O=S(=O)([O-])c1cc(O)c2ccc3c(S(=O)(=O)[O-])cc(S(=O)(=O)[O-])c4ccc1c2c34.[Na+].[Na+].[Na+] [HPTS, 8-hydroxy-1,3,6-pyrene trisulphonic acid trisodium salt] | approximately 7.3 | 7.72 ± 0.02 | toxicity [2]: low toxicity
C=C(C)C(=O)Oc1cc(O)c2ccc3c(S(=O)(=O)O)cc(S(=O)(=O)O)c4ccc1c2c34 [MA-HPDS, 6-methacryloyl-8-hydroxy-1,3-pyrene disulfonic acid] |  | 7.61 ± 0.05 | 
O=C1OC2(c3cc(Cl)c(O)cc3Oc3cc(O)c(Cl)cc32)c2ccccc21 [dichlorofluorescein] | ~4 |  | 
